Each block holds one compound with its values, some of them ahead of it. Active and inactive are the calls of the source. The calls are words filed in the database; no cut-off is given here.
Columns and labels:
NCI/ADR-RES [1] = assay: Induction of apoptosis in human MCF7ADR cells incubated for 24 hrs by Annexin V-FITC/PI staining based flow cytometry analysis; assay type: functional, cell-based; conditions: dose 25-50 nM
NCI/ADR-RES [2] = assay: Induction of apoptosis in human MCF7ADR cells at 25 to 50 nM incubated for 24 hrs by Annexin V-FITC/PI staining based flow cytometry analysis; assay type: functional; conditions: dose 25-50 nM
A549 [3] = assay: Antiproliferative activity against human A549 cells assessed as inhibition of cell growth incubated for 48 hrs by MTT assay; assay type: functional, cell-based; conditions: A549, 48 h
NCI/ADR-RES [4] = assay: Induction of NO release in human MCF7ADR cells at 100 uM by Griess reagent assay; assay type: functional, cell-based; conditions: time <= 10.0 hrs
Lysosomal membrane = assay: Induction of lysosomal membrane permeabilization in human MCF7ADR cells assessed as increase fluorescence intensity incubated for 6 hrs by LysoTracker red probe based laser scanning confocal microscopic analysis; assay type: subcellular; conditions: dose 50-100 nM
NCI/ADR-RES [5] = assay: Antiproliferative activity against human MCF7ADR cells assessed as inhibition of cell growth incubated for 48 hrs by MTT assay; assay type: functional, cell-based
[6] = Toxicity in BALB/c mouse xenografted with human MCF7ADR cells assessed as change in body weight at 1.25 to 5 mg/kg, ip measured for 21 days; assay type: organism-based; conditions: in vivo, 504 h, dose 1.25-5 mg/kg, time 21 day
[7] = Toxicity in BALB/c mouse xenografted with human MCF7ADR cells assessed as liver damage at 1.25 to 5 mg/kg, ip measured for 21 days by H and E staining based analysis; assay type: organism-based; conditions: in vivo, 504 h, dose 1.25-5 mg/kg, time 21 day
NCI/ADR-RES [8] = assay: Induction of NO release in human MCF7ADR cells at 100 uM measured for 5 hrs by Griess reagent assay; assay type: functional, cell-based
NCI/ADR-RES [9] = assay: Induction of cell cycle arrest in human MCF7ADR cells assessed as accumulation of cells at G2/M phase at 40 nM incubated for 24 hrs by flow cytometry analysis (reference value: 11.2%); assay type: functional
NCI/ADR-RES [10] = assay: Induction of cell cycle arrest in human MCF7ADR cells assessed as accumulation of cells at G2/M phase at 30 nM incubated for 24 hrs by flow cytometry analysis (reference value: 11.2%); assay type: functional
NCI/ADR-RES [11] = assay: Upregulation of m-CTSD expression in human MCF7ADR cells at 50 to 100 nM incubated for 24 hrs by Western blot analysis; assay type: functional, cell-based; conditions: dose 50-100 nM
MCF7 [12] = assay: Upregulation of P-gp expression in human MCF7 cells at 25 to 100 nM incubated for 24 hrs by Western blot analysis; assay type: functional, cell-based; conditions: dose 25-100 nM
A549/TR [13] = assay: Upregulation of P-gp expression in human A549/Taxol cells at 1 to 4 uM incubated for 24 hrs by Western blot analysis; assay type: functional, cell-based; conditions: dose 1-4 µM
NCI/ADR-RES [14] = assay: Upregulation of Bax expression in human MCF7ADR cells incubated for 24 hrs by Western blot analysis; assay type: functional, cell-based; conditions: dose 25-50 nM
[15] = Toxicity in BALB/c mouse xenografted with human MCF7ADR cells assessed as lung damage at 1.25 to 5 mg/kg, ip measured for 21 days by H and E staining based analysis; assay type: organism-based; conditions: in vivo, 504 h, dose 1.25-5 mg/kg, time 21 day
NCI/ADR-RES [16] = assay: Induction of ROS production in human MCF-7/ADR cells in presence of NAC; assay type: functional, cell-based
PC-3 = assay: Antiproliferative activity against human PC-3 cells assessed as inhibition of cell growth incubated for 48 hrs by MTT assay; assay type: functional, cell-based; conditions: PC-3, 48 h
MCF7 [17] = assay: Antiproliferative activity against human MCF7 cells assessed as inhibition of cell growth incubated for 48 hrs by MTT assay; assay type: functional, cell-based; conditions: MCF7, 48 h
NCI/ADR-RES [18] = assay: Inhibition of colony formation in human MCF7ADR cells assessed as reduction in colony growth at 40 nM incubated for 12 days in presence of hemoglobin by crystal violet staining based assay; assay type: functional, cell-based; conditions: time 12.0 day
[19] = Cytotoxicity against human MCF-10A cells assessed as inhibition of cell growth incubated for 48 hrs by MTT assay; assay type: toxicity, cell-based
[20] = Cytotoxicity against human BEAS-2B cells assessed as inhibition of cell growth incubated for 48 hrs by MTT assay; assay type: toxicity, cell-based
NCI/ADR-RES [21] = assay: Antitumor activity against human MCF7ADR cells xenografted in BALB/c mouse at 1.25 to 5 mg/kg, ip measured for 21 days; assay type: functional, organism-based; conditions: dose 1.25-5 mg/kg, time 21.0 day
[22] = Toxicity in BALB/c mouse xenografted with human MCF7ADR cells assessed as spleen damage at 1.25 to 5 mg/kg, ip measured for 21 days by H and E staining based analysis; assay type: organism-based; conditions: in vivo, 504 h, dose 1.25-5 mg/kg, time 21 day
[23] = Selectivity index, ratio of IC50 for antiproliferative activity against human A549 cells assessed as inhibition of cell growth to IC50 for antiproliferative activity against human A549/Taxol cells assessed as inhibition of cell growth; assay type: functional
NCI/ADR-RES [24] = assay: Induction of cell cycle arrest in human MCF7ADR cells assessed as accumulation of cells at G2/M phase at 20 nM incubated for 24 hrs by flow cytometry analysis (reference value: 11.2%); assay type: functional
HepG2 = assay: Antiproliferative activity against human HepG2 cells assessed as inhibition of cell growth incubated for 48 hrs by MTT assay; assay type: functional, cell-based; conditions: HepG2, 48 h
NCI/ADR-RES [25] = assay: Induction of apoptosis in human MCF7ADR cells assessed as increase in PARP1 cleavage at 25 to 50 nM incubated for 24 hrs by Western blot analysis; assay type: functional, cell-based; conditions: dose 25-50 nM
NCI/ADR-RES [26] = assay: Induction of NO release in human MCF7ADR cells by DAF-FM DA probe based analysis; assay type: functional, cell-based; conditions: dose 50-100 nM
[27] = Toxicity in BALB/c mouse xenografted with human MCF7ADR cells assessed as heart damage at 1.25 to 5 mg/kg, ip measured for 21 days by H and E staining based analysis; assay type: organism-based; conditions: in vivo, 504 h, dose 1.25-5 mg/kg, time 21 day
[28] = Toxicity in BALB/c mouse xenografted with human MCF7ADR cells assessed as kidney damage at 1.25 to 5 mg/kg, ip measured for 21 days by H and E staining based analysis; assay type: organism-based; conditions: in vivo, 504 h, dose 1.25-5 mg/kg, time 21 day
NCI/ADR-RES [29] = assay: Upregulation of P-gp expression in human MCF-7/ADR cells at 25 to 100 nM incubated for 24 hrs by Western blot analysis; assay type: functional, cell-based; conditions: dose 25-100 nM
NCI/ADR-RES [30] = assay: Downregulation of Bcl-2 expression in human MCF7ADR cells incubated for 24 hrs by Western blot analysis; assay type: functional, cell-based; conditions: dose 25-50 nM
NCI/ADR-RES [31] = assay: Antitumor activity against human MCF7ADR cells xenografted in ip dosed BALB/c mouse assessed as decrease in ki67 expression measured for 21 days; assay type: functional, organism-based; conditions: dose 1.25-5 mg/kg, time 21.0 day
NCI/ADR-RES [32] = assay: Inhibition of colony formation in human MCF7ADR cells assessed as reduction in colony growth at 40 to 50 nM incubated for 12 days by crystal violet staining based assay; assay type: functional, cell-based; conditions: dose 40-50 nM, time 12.0 day
[33] = Selectivity index, ratio of IC50 for antiproliferative activity against human MCF7 cells assessed as inhibition of cell growth to IC50 for antiproliferative activity against human MCF7ADR cells assessed as inhibition of cell growth; assay type: functional
[34] = Induction of NO release in lysosome of human A549/Taxol cells assessed as increase in green fluorescence intensity at 100 nM by Lyso-NO probe based laser scanning confocal microscopic analysis; assay type: subcellular; conditions: 0.1 µM, time 1-3 hrs
[35] = Drug localization in lysosome of human MCF-7/ADR cells assessed as emission of yellow fluorescence incubated for 1 hr by DAPI staining based laser scanning confocal microscopic analysis; assay type: ADME, subcellular
NCI/ADR-RES [36] = assay: Induction of ROS production in human MCF-7/ADR cells in presence of elacridar; assay type: functional, cell-based
NCI/ADR-RES [37] = assay: Antitumor activity against human MCF7ADR cells xenografted in BALB/c mouse assessed as inhibition of tumor volume at 5 mg/kg, ip measured for 21 days; assay type: functional; conditions: 504 h, time 21 day
A549/TR [38] = assay: Antiproliferative activity against human A549/Taxol cells assessed as inhibition of cell growth incubated for 48 hrs by MTT assay; assay type: functional, cell-based
NCI/ADR-RES [39] = assay: Antitumor activity against human MCF7ADR cells xenografted in BALB/c mouse at 1.25 mg/kg, ip measured for 21 days; assay type: functional, organism-based; conditions: time 21.0 day
[40] = Induction of NO release in lysosome of human MCF-7/ADR cells assessed as increase in green fluorescence intensity at 100 nM by Lyso-NO probe based laser scanning confocal microscopic analysis; assay type: subcellular; conditions: 0.1 µM, time 1-3 hrs
[41] = molecular target: T1, ATP-dependent translocase ABCB1 (Homo sapiens, UniProt P08183); assay: Inhibition of P-gp-mediated rhodamine-123 efflux in human MCF7 cells assessed as increase in Rh123 accumulation incubated for 4 hrs by flow cytometry analysis; assay type: cell-based; conditions: mcf7, 4 h, at 10 to 50 nM, dose 10-50 nM
[42] = molecular target: T1, ATP-dependent translocase ABCB1; assay: Inhibition of P-gp-mediated rhodamine-123 efflux in human MCF-7/ADR cells assessed as increase in Rh123 accumulation incubated for 4 hrs by flow cytometry analysis; assay type: cell-based; conditions: at 10 to 50 nM, dose 10-50 nM
A549 [43] = assay: Upregulation of P-gp expression in human A549 cells at 1 to 4 uM incubated for 24 hrs by Western blot analysis; assay type: functional, cell-based; conditions: dose 1-4 µM
NCI/ADR-RES [44] = assay: Upregulation of Caspase-3 expression in human MCF7ADR cells at 25 to 50 nM incubated for 24 hrs by Western blot analysis; assay type: functional, cell-based; conditions: dose 25-50 nM
MCF7 [45] = assay: Induction of NO release in human MCF7 cells at 100 uM measured for 5 hrs by Griess reagent assay; assay type: functional, cell-based

T1 sequence (P08183 whole entry): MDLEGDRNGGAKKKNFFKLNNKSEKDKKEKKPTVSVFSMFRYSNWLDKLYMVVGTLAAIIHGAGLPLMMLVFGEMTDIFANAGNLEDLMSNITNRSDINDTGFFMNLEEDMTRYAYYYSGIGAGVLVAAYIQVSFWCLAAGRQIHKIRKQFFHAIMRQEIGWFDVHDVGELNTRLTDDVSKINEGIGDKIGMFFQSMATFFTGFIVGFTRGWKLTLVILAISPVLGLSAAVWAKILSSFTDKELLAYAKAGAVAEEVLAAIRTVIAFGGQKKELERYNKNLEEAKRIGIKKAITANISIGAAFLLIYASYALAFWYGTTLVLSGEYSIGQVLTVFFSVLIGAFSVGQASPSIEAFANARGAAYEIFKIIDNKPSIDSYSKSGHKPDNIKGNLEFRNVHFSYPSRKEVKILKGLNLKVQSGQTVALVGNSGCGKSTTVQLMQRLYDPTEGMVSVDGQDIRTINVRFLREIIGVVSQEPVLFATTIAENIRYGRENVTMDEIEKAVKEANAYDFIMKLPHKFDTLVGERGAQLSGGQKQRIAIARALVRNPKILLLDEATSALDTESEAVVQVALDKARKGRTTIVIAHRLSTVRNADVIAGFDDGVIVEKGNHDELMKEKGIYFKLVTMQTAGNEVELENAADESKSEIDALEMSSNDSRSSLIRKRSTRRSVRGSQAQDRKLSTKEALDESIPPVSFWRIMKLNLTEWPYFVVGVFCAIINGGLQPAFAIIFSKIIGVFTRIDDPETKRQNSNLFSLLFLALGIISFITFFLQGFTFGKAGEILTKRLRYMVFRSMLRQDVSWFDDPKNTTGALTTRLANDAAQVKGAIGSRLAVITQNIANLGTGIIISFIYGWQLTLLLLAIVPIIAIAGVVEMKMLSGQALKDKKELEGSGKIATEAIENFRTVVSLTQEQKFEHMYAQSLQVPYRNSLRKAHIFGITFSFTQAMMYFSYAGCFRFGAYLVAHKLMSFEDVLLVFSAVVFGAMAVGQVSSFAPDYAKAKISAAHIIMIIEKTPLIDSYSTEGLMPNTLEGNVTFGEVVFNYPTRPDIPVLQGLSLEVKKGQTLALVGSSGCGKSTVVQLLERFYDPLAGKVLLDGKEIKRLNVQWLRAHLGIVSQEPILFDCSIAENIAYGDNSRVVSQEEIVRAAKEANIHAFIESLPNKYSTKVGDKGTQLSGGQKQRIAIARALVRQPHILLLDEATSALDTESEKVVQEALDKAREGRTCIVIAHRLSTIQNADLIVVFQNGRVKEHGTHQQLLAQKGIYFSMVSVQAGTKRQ

- IC50 (A549 [3]): 23.8 µM
- Activity (Lysosomal membrane): Dose-dependent-effect
- IC50 (PC-3): 3.36 µM
- IC50 (MCF7 [17]): 21.2 µM
- IC50 (HepG2): 6.57 µM
- Activity [34]: Time-dependent-effect
- Drug uptake [35]: Active
- IC50 (A549/TR [38]): 1.43 µM
- Activity [40]: Time-dependent-effect
- inhibition (INH) [41]: Dose-dependent-effect
- inhibition (INH) [42]: Dose-dependent-effect
Compound: O=S(=O)(c1ccccc1)c1c(OCCCOc2cccc3c2Oc2cccc(c2)CCc2ccc(O)c(c2)Oc2ccc(cc2)CC3)no[n+]1[O-]
- Activity (NCI/ADR-RES [1]): Dose-dependent-effect
- Activity (NCI/ADR-RES [2]): 8.6%
- Activity (NCI/ADR-RES [4]): Time-dependent-effect
- IC50 (NCI/ADR-RES [5]): 0.024 µM
- Activity [6]: Non-toxic
- Activity [7]: Non-toxic
- Activity (NCI/ADR-RES [8]): Active
- Activity (NCI/ADR-RES [9]): 25.3%
- Activity (NCI/ADR-RES [10]): 20.3%
- Activity (NCI/ADR-RES [11]): Active
- Activity (MCF7 [12]): inactive
- Activity (A549/TR [13]): Active
- Activity (NCI/ADR-RES [14]): Dose-dependent-effect
- Activity [15]: Non-toxic
- Activity (NCI/ADR-RES [16]): Active
- inhibition (NCI/ADR-RES [18]): Active
- IC50 at 48 h [19]: 14.3 µM
- IC50 at 48 h [20]: 14.8 µM
- Activity (NCI/ADR-RES [21]): Active; Displayed Strong Antitumor Activity Than Ptx
- Activity [22]: Non-toxic
- Ratio IC50 [23]: 17
- Activity (NCI/ADR-RES [24]): 18.1%
- Activity (NCI/ADR-RES [25]): Active
- Activity (NCI/ADR-RES [26]): Dose-dependent-effect
- Activity [27]: Non-toxic
- Activity [28]: Non-toxic
- Activity (NCI/ADR-RES [29]): Active
- Activity (NCI/ADR-RES [30]): Dose-dependent-effect
- Activity (NCI/ADR-RES [31]): Dose-dependent-effect
- inhibition (NCI/ADR-RES [32]): Active
- Ratio IC50 [33]: 883
- Activity (NCI/ADR-RES [36]): Active
- inhibition in vivo at 5 mg/kg (NCI/ADR-RES [37]): 62.7%
- Activity (NCI/ADR-RES [39]): Active
- Activity (A549 [43]): Active
- Activity (NCI/ADR-RES [44]): Active

- IC50 (A549 [3]): > 40 µM
- IC50 (PC-3): 11.7 µM
- IC50 (MCF7 [17]): > 20 µM
- IC50 (HepG2): > 20 µM
Compound: O=[N+]([O-])OCC(COc1cccc2c1Oc1cccc(c1)CCc1ccc(O)c(c1)Oc1ccc(cc1)CC2)O[N+](=O)[O-] (configuration not stated)
- Activity (NCI/ADR-RES [4]): Time-dependent-effect
- IC50 (NCI/ADR-RES [5]): > 20 µM
- Activity (NCI/ADR-RES [8]): inactive
- Activity (MCF7 [45]): inactive

- IC50 (A549 [3]): > 40 µM
- IC50 (PC-3): > 20 µM
- IC50 (MCF7 [17]): > 20 µM
- IC50 (HepG2): > 20 µM
Compound: O=[N+]([O-])c1ccc(O/N=[N+](\[O-])N2CCN(Cc3ccc4c(c3O)Oc3cccc(c3)CCc3ccc(O)c(c3)Oc3ccc(cc3)CC4)CC2)c([N+](=O)[O-])c1
- Activity (NCI/ADR-RES [4]): Time-dependent-effect
- IC50 (NCI/ADR-RES [5]): > 3 µM
- Ratio IC50 [33]: <7
